Assay results as given in paper PMC8899577, “Targeting the anti-apoptotic Bcl-2 family proteins: machine learning virtual screening and biological evaluation of new small molecules” (Theranostics, 2022).

What was measured:
[1] = system: M14 melanoma cells; experiment: Cell viability by MTT, M14; format: cell-based, Human; conditions: for cell viability M14: 20 µM for 72 h, vs control; for IC50: Homo sapiens, M14, 72 h, MTT
Procedure: (§1) The effect of compounds on cell viability was performed by measuring 3-[4,5-dimethylthiazol-2-yl]-2,5-diphenyltetrazolium bromide inner salt (MTT, Sigma-Aldrich) dye absorbance (solid tumor cells) or by quantization of ATP present in metabolically active cells using CellTiter-Glo® Luminescent (Promega, Fitchburg, Wisconsin, USA) (hematologic cells) following manifacturer's protocol. To evaluate the cell colony-forming ability, cell suspension from different samples was seeded into 60-mm Petri dishes. After 10 days, colonies were stained with 2% methylene blue in 95% ethanol and counted (1 colony > 50 cells). The surviving fractions were calculated as the ratio of absolute survival of the treated sample/survival of DMSO-treated control sample.
Figure 1 Cytotoxic screening of putative inhibitors of Bcl-2 anti-apoptotic proteins. (A) Flow cytometric quantification of propidium iodide exclusion assay in HL60 cells treated with the 49 putative Bcl-2 family inhibitors (50 μM, 72 h). (B) Analysis of cell viability by CellTiterGlo assay in HL60 cells treated for 24 h with concentrations ranging from 5 to 50 μM of the indicated compounds. (C-D) Analysis of cell viability by MTT assay in (C) M14 and (D) Sbcl2 melanoma cell lines treated for 72 h with concentrations ranging from 5 to 50 μM of the indicated compounds. (A-D) The results are reported as “viability of treated cells/viability of control cells (Ctrl)” × 100. Data are reported as mean of two (HL60) or three (M14 and Sbcl2) experiments ± SEM.
(§2) Figure 4 Analysis of the effect of IS20 and IS21 on cell viability, clonogenic ability and tumor sphere formation in cancer cells. (A) Analysis of cell viability by MTT assay in M14, H1299, HCT116 and MDA-MB-231 cell lines treated with IS20 or IS21 (20 μM for 72 h). The results are reported as “viability of treated cells/viability of control cells (Ctrl)” × 100. (B) Representative images and quantification of clonogenic ability evaluated in M14 and H1299 cells treated with IS20 or IS21 (20 μM for 72 h). Results are reported as percentage of clonogenicity of treated versus control cells. (C) Quantification of tumor sphere formation of M14 and H1299 cells treated with IS20 or IS21 (20 μM for 72 h). Results are reported as percentage of tumor sphere formation of treated versus control. (A-C) Data are reported as mean ± SD of three independent experiments. p-values were calculated between control (Ctrl) and treated cells, ** p < 0.001 and *** p < 0.0001.

[2] = system: M14 cells; experiment: Tumor sphere formation assay, M14; format: cell-based, Human; conditions: 20 µM for 72 h, respect to controls
Procedure: For tumor sphere assay, cells were recovered after treatment, counted and seeded in 24-well ultralow attachment surface plates at a density of 5 × 10^2 cells/well and cultured as previously described. After 10 days, spheres were photographed and counted. The percentage of spheres normalized to the number of seeded cells was calculated.
as §2

[3] = system: H1299 cells; experiment: Western blot of PARP1 cleavage, H1299; format: cell-based, Human; conditions: 72 h
Procedure: Western blot analyses of total protein extracts were performed as previously described. Immunodetection was performed using antibodies directed to poly (ADP-ribose) polymerase (PARP; BD Biosciences San Diego, CA, USA), LC3B (Cell Signaling Technology, Danvers, MA), HSP72/73 (Calbiochem, EMD Biosciences, La Jolla, CA), Bcl-2 (SC-509, Santa Cruz Biotechnology Inc, Dallas, TX, USA), Bcl-xL (SC-271121, Santa Cruz Biotechnology Inc), Mcl-1 (SC-12756, Santa Cruz Biotechnology Inc) α-tubulin (Santa Cruz Biotechnology Inc) actin (Sigma-Aldrich, St. Louis, Missouri, USA). Anti-rabbit or anti-mouse immunoglobulin G-horseradish peroxidase-conjugated antibodies (Amersham Biosciences, Freiburg, Germany) were used as secondary antibody. Images were acquired by Image Lab Software (Bio-Rad, Hercules, CA, USA), using a ChemiDoc System instrument (Bio-Rad). […]
Figure 5 Analysis of apoptosis induction by IS20 and IS21 in leukemia, melanoma and NSCLC cells. […] (G) Flow cytometric quantification of cells in the subG1 peak of cell cycle distribution by propidium iodide staining in HL60 cell line treated with IS20 or IS21 (20 μM for 24 h) and in M14, H1299 and MDA-MB-231 cell lines treated with IS20 or IS21 (20 μM for 72 h). Data are reported as mean ± SD of three independent experiments. p-values were calculated between control (Ctrl) and treated cells, * p < 0.05. […]

[4] = system: Sbcl2 melanoma cells; experiment: Cell viability by MTT, Sbcl2; format: cell-based; conditions: Homo sapiens, 72 h
Procedure: as §1
Figure 1 Cytotoxic screening of putative inhibitors of Bcl-2 anti-apoptotic proteins. (A) Flow cytometric quantification of propidium iodide exclusion assay in HL60 cells treated with the 49 putative Bcl-2 family inhibitors (50 μM, 72 h). (B) Analysis of cell viability by CellTiterGlo assay in HL60 cells treated for 24 h with concentrations ranging from 5 to 50 μM of the indicated compounds. (C-D) Analysis of cell viability by MTT assay in (C) M14 and (D) Sbcl2 melanoma cell lines treated for 72 h with concentrations ranging from 5 to 50 μM of the indicated compounds. […]

[5] = system: H1299 cells; experiment: Clonogenic assay, H1299; format: cell-based, Human; conditions: 20 µM for 72 h, respect to controls
Procedure: as §1
(§3) Figure 4 Analysis of the effect of IS20 and IS21 on cell viability, clonogenic ability and tumor sphere formation in cancer cells. […] (B) Representative images and quantification of clonogenic ability evaluated in M14 and H1299 cells treated with IS20 or IS21 (20 μM for 72 h). […] (C) Quantification of tumor sphere formation of M14 and H1299 cells treated with IS20 or IS21 (20 μM for 72 h). […] (A-C) Data are reported as mean ± SD of three independent experiments. p-values were calculated between control (Ctrl) and treated cells, ** p < 0.001 and *** p < 0.0001.

[6] = system: M14 cells; experiment: Flow cytometry subG1 peak (PI staining), M14; format: cell-based, Human; conditions: 20 µM for 72 h
Procedure: (§4) Flow cytometric analysis (BD Accuri™ C6, BD Biosciences) was performed to evaluate cell cycle distribution by propidium iodide (PI) staining, and cell viability by using the PI dye exclusion assay as previously reported.
(§5) Figure 5 Analysis of apoptosis induction by IS20 and IS21 in leukemia, melanoma and NSCLC cells. […] (A-F) Reported images are representative of two independent experiments with similar results. HSP72/73 or α-Tubulin are shown as loading and transferring control. (G) Flow cytometric quantification of cells in the subG1 peak of cell cycle distribution by propidium iodide staining in HL60 cell line treated with IS20 or IS21 (20 μM for 24 h) and in M14, H1299 and MDA-MB-231 cell lines treated with IS20 or IS21 (20 μM for 72 h). Data are reported as mean ± SD of three independent experiments. p-values were calculated between control (Ctrl) and treated cells, * p < 0.05. (H) Flow cytometric quantification of cells in the subG1 peak by propidium iodide staining in M14 and H1299 cell lines treated with IS20 or IS21 (20 μM, 72 h) in presence or absence of the pan caspase inhibitor z-VAD (50 μM). p-values were calculated between treated control (Ctrl) cells, # p < 0.01, ## p < 0.001 or between cells treated with IS20 or IS21 alone or in combination with z-VAD, * p < 0.05, ** p < 0.005. (G-H) Data are reported as mean of two (H) or three (G) experiments ± SD.

[7] = system: M14 cells; experiment: Clonogenic assay, M14; format: cell-based, Human; conditions: 20 µM for 72 h, respect to controls
Procedure: as §1, §3

[8] = system: MDA-MB-231 cells; experiment: Flow cytometry subG1 peak (PI staining), MDA-MB-231; format: cell-based, Human; conditions: 20 µM for 72 h
Procedure: as §4, §5

[9] = system: HCT116 colon cancer cells; experiment: Cell viability by MTT, HCT116; format: cell-based, Human; conditions: 20 µM for 72 h, vs control
Procedure: as §1, §3

Row | Structure (SMILES) | cell viability M14 [1] | IC50 [1] | decrease of sphere formation capacity, M14 [2] | PARP1 cleavage, H1299 [3] | IC50 [4] | decrease of cell colony formation, H1299 [5] | subG1 peak of cell cycle distribution, M14 [6] | decrease of cell colony formation, M14 [7] | subG1 peak of cell cycle distribution, MDA-MB-231 [8] | cell viability HCT116 [9]
1 | CCCCOc1ccc(C2/C(=C(\O)c3ccc4c(c3)CC(C)O4)C(=O)C(=O)N2c2nnc(SCc3ccc(Cl)cc3)s2)cc1OCC (centres unmarked) [IS20] | significant inhibition | 19.8 µM | about 60% | cleavage of PARP1 | 21 µM | 80-90% | presence of subG1 peak | 80-90% | not evident | not significantly perturbed
2 | CCCCCOc1ccc(C2/C(=C(\O)c3ccc4c(c3)CC(C)O4)C(=O)C(=O)N2c2nnc(SCc3ccc(Cl)cc3)s2)cc1OCC (centres unmarked) [IS21] | significant inhibition | 16.7 µM | about 60% | cleavage of PARP1 | 19.8 µM | 80-90% | presence of subG1 peak | 80-90% | not evident | not significantly perturbed
